The target in test [1] is T1, Polyadenylate-binding protein 1 (Homo sapiens, UniProt P11940). Kind of test: MLLE domain peptide-binding blockers, IC50 – biochemical, fluorescence polarization, FITC-PAM2 peptide, dose response (AID 602259). Particulars: read-out: IC50_Mean. It is filed as functional.
Test [2] has as its target T1, Polyadenylate-binding protein 1. Kind of test: MLLE binding blockers, Cy5 peptide tracer – biochemical, fluorescence polarization, Cy5-PAM2 peptide, secondary, miRNA deadenylation inhibitor project, dose response (AID 602260). It is filed as functional. The note with it: read-out: IC50_Mean.
In test [3] the target is Voltage-dependent T-type calcium channel subunit alpha-1H (Homo sapiens, UniProt O95180). It is filed as functional.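 Further: channel activity triggered by adding a high calcium stimulation buffer.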
The nature of test [4]: non-specific 3'UTR reporter inhibition in Clone20-Shn3RL – cell-based, Renilla luciferase, cherry-picked, counter-screen for Shn3 inhibitor project, dose response (AID 624133). It is filed as functional.
For the next test, the system named is INS1. The experiment in a line: INS-1E survival protection against cytokine death – cell-based, luminescence, retest, dose response (AID 449756).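 Further: cell death triggered by IL-1 beta plus TNF-alpha plus IFN-gamma mixture; protective hits raise ATP signal compared with cytokine alone wells.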 The format is functional. Particulars: Rattus norvegicus.
The nature of test [5]: reduction of Shn3 3'UTR-driven luciferase in osteoblasts – cell-based, Clone20 osteoblasts, firefly luciferase, cherry-picked, dose response (AID 624132).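 Further: firefly luciferase luminescence from reporter carrying the Shn3 3'UTR in osteoblasts.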 The format is functional.
Test [6] deals with T2, Carboxy-terminal domain RNA polymerase II polypeptide A small phosphatase 1 (Homo sapiens, UniProt Q9GZU7).
T2 sequence (Q9GZU7 whole entry): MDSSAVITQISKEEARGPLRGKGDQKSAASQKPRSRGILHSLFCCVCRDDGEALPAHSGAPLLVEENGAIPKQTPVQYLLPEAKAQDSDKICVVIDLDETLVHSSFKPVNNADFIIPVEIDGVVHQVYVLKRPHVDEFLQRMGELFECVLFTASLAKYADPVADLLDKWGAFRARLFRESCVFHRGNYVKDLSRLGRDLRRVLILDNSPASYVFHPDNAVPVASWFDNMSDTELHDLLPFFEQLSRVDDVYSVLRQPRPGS
The experiment in a line: CTDSP1 inhibitors, concentration-response, biochemical, absorbance readout, ultra-high-throughput screen actives (AID 540297). The format is functional.

The target of test [7] is T3, Calpain-2 catalytic subunit (Sus scrofa, UniProt P43367).
T3 sequence (P43367 whole entry): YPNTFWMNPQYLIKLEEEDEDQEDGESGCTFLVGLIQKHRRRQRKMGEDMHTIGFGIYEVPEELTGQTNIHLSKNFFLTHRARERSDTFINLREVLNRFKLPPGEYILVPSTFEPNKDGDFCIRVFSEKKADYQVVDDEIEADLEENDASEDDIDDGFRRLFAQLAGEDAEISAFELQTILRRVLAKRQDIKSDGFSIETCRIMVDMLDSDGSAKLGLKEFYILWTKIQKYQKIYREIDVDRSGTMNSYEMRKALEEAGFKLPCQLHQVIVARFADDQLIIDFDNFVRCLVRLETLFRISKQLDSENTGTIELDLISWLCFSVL
Kind of test: m-calpain protease blockers, concentration series – biochemical, fluorogenic peptide substrate, dose response (AID 1420). The format is functional.

A short description of test [8]: Luminescence Cell-Based Dose Response HTS to Identify Activators of Luciferase Translation or Activity in H4 […] Cells. [Related pubchem assays: 1829 (Project Summary), 1814 (Primary HTS)]. It is filed as functional.
The subject of a further test is H4. The experiment in a line: Luminescence Cell-Based Dose Response HTS to Identify Activators of 5'UTR Stem-Loop Driven Prion Protein mRNA Translation in H4 Neuroglioblastoma Cells. [Related pubchem assays: 1829 (Project Summary), 1814 (Primary HTS)]. The format is functional. The note with it: Homo sapiens.
Test [9] in a line: Luminescence Cell-Based Dose Confirmation HTS to Identify Activators of 5'UTR Stem-Loop Driven Alpha-Synuclein mRNA Translation in H4 Neuroglioblastoma Cells. [Related pubchem assays: 1829 (Project Summary), 1814 (Primary HTS)]. The format is functional.
The nature of test [10]: blockers of HIV-1 ZM109 envelope-driven cell-cell fusion – HeLa effector, CEM target cells, luciferase, cherry-pick, dose response (AID 652058).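 Further: luciferase signal from HIV-1 Env mediated cell-cell fusion of effector and target cells.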 The format is functional, cell-based.
Test [11] concerns the target T4, Microphthalmia-associated transcription factor (Homo sapiens, UniProt O75030).
T4 sequence (O75030 whole entry): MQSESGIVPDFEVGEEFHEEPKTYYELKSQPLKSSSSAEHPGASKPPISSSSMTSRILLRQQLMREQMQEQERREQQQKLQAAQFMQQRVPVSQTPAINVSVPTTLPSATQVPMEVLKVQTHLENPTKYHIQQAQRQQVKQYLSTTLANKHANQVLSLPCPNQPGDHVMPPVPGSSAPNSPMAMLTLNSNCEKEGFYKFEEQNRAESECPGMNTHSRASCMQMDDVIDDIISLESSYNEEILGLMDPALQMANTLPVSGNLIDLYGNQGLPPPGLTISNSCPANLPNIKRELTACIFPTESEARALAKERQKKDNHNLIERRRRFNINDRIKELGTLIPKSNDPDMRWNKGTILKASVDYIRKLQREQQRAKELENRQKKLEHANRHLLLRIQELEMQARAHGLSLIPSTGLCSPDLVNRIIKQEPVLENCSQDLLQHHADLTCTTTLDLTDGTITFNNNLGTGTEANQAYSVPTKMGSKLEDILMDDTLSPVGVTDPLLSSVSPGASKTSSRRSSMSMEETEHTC
Kind of test: reducers of TRPM1 reporter luminescence, concentration series – cell-based, SK-MEL-5, cherry-picked, set 3, MITF inhibitor project, dose response (AID 493073).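 Further: SK-MEL-5 melanoma cells with luciferase driven by the MITF target TRPM1 promoter.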 The format is functional.

Test [12] is described as follows: viability of uninfected HEp-2 cells – cell-based, HTS, cytotoxicity control for RSV inhibitor project, dose response (AID 2410). It is filed as functional. The note with it: human respiratory syncytial virus.
A further test concerns the target Cytochrome P450 3A4 (Homo sapiens, UniProt P08684).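 Further: CYP3A4 tested as one member of a cytochrome P450 panel screen.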
Test [13] deals with T5, Heat shock factor protein 1 (Mus musculus, UniProt P38532).
T5 sequence (P38532 whole entry): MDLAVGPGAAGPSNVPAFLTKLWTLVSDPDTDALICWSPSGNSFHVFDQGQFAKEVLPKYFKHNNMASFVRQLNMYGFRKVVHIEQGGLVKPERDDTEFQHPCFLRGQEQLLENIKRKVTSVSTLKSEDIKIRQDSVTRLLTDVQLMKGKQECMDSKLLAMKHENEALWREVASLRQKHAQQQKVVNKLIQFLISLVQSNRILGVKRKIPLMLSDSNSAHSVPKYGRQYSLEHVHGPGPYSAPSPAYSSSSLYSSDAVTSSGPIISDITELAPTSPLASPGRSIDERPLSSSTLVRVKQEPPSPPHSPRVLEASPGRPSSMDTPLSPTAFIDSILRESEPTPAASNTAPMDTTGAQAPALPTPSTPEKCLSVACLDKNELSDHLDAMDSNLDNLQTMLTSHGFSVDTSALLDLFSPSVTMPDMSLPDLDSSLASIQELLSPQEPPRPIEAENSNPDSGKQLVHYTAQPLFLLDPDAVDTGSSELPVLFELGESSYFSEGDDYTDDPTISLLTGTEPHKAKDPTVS
The experiment in a line: decrease of HSF1-responsive luciferase luminescence – cell-based, NIH3T3, dose retest, confirmation (AID 2382).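 Further: NIH3T3 fibroblasts with HSF1-driven luciferase reporter stressed by proteasome inhibitor MG132; luminescence from HSF1-driven luciferase expression after 8 hours of MG132 stress.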 It is filed as functional.

Test [14] in a line: viability of HCT116 lacking mutant beta-catenin – cell-based, human colon tumor, dose response (AID 1045).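 Further: HCT116 colon tumor cells with beta catenin knocked out; cells exposed to compound for 60 hours.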 The format is functional.
Test [15] in a line: viability of PTEN-deleted HCT116 cells – cell-based, HCT116 PTEN knockout, dose response (AID 1047).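 Further: HCT116 colon tumor cells with PTEN knocked out; cells exposed to compound for 60 hours before readout; potency for loss of cell viability measured by luminescence.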 The format is functional.
Test [16] in a line: loss of viability in HepG2 cells – cell-based, CellTiter-Glo, cherry-picked, cytotoxicity control for Shn3 inhibitor project, dose response (AID 624134). The format is functional.

The source made the active and inactive calls. Where only a bound is given, the exact number is not on record here.

T1 sequence (P11940 whole entry, the tested form may be a part): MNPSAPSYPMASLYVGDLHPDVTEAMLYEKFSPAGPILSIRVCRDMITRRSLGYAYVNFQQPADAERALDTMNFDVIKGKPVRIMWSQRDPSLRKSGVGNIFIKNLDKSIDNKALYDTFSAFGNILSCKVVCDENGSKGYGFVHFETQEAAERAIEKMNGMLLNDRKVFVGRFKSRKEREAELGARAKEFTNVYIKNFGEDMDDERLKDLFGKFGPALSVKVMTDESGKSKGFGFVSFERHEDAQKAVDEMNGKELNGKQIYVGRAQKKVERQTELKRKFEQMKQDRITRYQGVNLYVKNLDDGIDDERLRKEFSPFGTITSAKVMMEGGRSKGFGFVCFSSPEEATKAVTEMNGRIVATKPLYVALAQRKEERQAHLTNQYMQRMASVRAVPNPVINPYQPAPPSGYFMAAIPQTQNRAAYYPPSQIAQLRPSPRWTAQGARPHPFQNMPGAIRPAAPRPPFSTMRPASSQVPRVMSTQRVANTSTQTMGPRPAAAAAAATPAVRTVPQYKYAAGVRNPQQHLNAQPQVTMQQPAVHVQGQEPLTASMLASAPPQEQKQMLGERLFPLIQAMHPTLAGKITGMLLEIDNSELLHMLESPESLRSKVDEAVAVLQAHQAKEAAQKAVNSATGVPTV
Sequence of Voltage-dependent T-type calcium channel subunit alpha-1H (O95180 whole entry): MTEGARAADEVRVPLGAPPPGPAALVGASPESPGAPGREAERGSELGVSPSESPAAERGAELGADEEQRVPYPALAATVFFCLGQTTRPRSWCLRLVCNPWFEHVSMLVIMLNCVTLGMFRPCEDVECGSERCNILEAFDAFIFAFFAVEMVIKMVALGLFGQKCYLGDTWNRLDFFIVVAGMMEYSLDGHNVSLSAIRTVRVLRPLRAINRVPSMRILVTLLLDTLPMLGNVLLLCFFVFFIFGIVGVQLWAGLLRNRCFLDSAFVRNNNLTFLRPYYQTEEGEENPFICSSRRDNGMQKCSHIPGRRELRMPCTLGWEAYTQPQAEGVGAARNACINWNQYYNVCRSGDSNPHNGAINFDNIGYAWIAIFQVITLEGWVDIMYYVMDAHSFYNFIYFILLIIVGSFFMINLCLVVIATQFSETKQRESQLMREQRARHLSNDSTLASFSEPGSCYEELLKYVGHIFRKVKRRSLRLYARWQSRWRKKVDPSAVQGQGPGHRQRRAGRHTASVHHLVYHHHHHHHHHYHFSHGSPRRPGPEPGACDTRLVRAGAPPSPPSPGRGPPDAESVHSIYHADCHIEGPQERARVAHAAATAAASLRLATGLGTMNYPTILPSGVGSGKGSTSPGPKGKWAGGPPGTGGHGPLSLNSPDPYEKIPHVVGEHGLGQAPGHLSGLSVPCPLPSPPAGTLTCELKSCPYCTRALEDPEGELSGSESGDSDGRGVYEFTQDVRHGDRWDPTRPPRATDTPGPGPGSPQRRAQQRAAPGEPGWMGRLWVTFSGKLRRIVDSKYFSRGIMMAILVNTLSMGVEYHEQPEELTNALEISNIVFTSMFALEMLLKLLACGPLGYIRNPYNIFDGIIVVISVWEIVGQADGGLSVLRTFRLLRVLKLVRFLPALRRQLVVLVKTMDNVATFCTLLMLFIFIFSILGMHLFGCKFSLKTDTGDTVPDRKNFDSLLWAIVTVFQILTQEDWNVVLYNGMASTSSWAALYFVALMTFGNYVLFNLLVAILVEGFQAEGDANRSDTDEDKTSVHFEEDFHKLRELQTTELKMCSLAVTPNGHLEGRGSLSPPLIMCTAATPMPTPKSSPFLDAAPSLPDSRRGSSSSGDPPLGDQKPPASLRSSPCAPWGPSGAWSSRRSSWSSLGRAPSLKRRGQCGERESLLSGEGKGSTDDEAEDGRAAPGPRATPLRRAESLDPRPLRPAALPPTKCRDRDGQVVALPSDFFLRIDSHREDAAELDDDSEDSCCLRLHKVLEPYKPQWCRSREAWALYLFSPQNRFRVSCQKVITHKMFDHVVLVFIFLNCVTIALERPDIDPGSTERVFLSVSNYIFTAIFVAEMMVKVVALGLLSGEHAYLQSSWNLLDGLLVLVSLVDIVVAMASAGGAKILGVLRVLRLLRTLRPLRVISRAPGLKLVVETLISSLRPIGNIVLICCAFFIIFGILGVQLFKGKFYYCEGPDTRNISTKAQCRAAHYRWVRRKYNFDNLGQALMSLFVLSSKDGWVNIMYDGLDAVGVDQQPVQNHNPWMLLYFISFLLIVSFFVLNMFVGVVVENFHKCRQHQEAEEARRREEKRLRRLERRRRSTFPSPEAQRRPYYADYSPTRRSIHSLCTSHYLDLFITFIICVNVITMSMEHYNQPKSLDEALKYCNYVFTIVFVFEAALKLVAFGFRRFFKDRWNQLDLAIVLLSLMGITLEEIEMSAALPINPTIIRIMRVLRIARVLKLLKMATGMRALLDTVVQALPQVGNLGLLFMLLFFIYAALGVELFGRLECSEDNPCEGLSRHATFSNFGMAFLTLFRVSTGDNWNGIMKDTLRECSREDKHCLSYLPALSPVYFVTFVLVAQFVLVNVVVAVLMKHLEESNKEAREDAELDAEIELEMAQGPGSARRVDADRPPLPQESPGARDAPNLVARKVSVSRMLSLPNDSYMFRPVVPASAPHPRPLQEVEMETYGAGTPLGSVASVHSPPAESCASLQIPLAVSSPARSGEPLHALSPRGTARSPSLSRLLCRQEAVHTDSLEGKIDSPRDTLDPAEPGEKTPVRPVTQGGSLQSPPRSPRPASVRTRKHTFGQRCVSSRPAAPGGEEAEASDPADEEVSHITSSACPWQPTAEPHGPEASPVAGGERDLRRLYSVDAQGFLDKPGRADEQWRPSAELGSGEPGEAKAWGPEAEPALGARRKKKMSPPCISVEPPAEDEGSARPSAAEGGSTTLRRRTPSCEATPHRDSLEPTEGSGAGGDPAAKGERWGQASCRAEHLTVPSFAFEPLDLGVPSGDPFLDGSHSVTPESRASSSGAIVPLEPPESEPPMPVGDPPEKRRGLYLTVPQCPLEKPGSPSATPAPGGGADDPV
Sequence of Cytochrome P450 3A4 (P08684 whole entry): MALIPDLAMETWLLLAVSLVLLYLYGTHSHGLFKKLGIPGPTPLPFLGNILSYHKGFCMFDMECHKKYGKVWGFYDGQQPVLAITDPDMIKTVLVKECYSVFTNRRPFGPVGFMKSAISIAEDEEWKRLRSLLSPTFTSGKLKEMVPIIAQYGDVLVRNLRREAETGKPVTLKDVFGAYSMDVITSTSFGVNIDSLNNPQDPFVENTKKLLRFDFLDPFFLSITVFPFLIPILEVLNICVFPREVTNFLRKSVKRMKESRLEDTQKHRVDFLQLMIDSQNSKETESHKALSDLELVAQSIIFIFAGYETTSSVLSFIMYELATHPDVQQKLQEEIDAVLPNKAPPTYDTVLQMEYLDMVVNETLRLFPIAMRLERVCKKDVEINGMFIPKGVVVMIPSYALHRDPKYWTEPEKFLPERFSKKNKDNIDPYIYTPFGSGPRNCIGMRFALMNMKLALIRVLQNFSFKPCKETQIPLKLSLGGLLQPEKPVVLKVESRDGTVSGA

`c1ccc2c(c1)nnn2Cc1nnc2sc(-c3ccc4c(c3)OCCO4)nn12`: the IC50 in [1] and in [2] was > 66 µM (inactive) each time.

Turning to `CN1/C(=C\C(=O)CN2C(=O)NC3(CCCCCC3)C2=O)C(C)(C)c2ccccc21`, the EC50 in test [3] was 27.4 µM (active). The results for the AC50 (in test [4]; with INS1; in test [5]) were 12.3 µM (active), 4.56 µM (active) and 2.66 µM (active), respectively.

In the case of `Cc1ccc(NC(=O)c2cc(-c3ccc(C)c(C)c3O)n[nH]2)cc1C`, the IC50 in test [6] was 8.08 µM (active).

Regarding `CCOC(=O)C1CCCN(C(=O)c2ccccc2SCCOC)C1` (stereo not drawn), the IC50 in test [1] and in [2] was > 66 µM (inactive) in each case.

`CC1CC(C)CN(C(=O)Cn2c(=O)n(CCCCC(=O)NCc3ccco3)c(=O)c3ccccc32)C1` (stereo not drawn): the IC50 in test [7] is reported as > 50 µM (not active).

With `Cn1c(CSc2nc3ccccc3s2)nc2ccccc21`, the EC50 in test [8] is 2.94 µM (active); in test [3], 17.4 µM (active); in the test with H4, 19.9 µM (active); in test [9] it was 43.2 µM (active).

In the case of `O=C(C[C@H]1C[C@@H]2c3cc(NC(=O)Nc4ccc(F)cc4)ccc3O[C@@H]2[C@@H](CO)O1)NCC1CC1`, the AC50 in [10] is 41.4 µM (active).

Turning to `N#CC(c1cccc(C(F)(F)F)c1)(c1ncc(C(F)(F)F)cc1Cl)N1CCOCC1` (stereo not drawn), in test [3], the EC50 was 2.49 µM (active).

With `NC(=O)c1cc([N+](=O)[O-])ccc1NCc1ccc(N)cc1`, the AC50 in [11] was 1.41 µM (active).

`O=C(NC(Sc1ccc(Cl)cc1)C(=O)O)c1ccccc1` (stereo not drawn): the IC50 in test [1] and in test [2] was > 66 µM (inactive) each time.

Turning to `O=C(CN1CCCCCCC1)Nc1ccc(Cl)cc1Cl`, in test [7], the IC50 is recorded as 4.92 µM (not active).

For the compound `COc1cccc(Nc2nc(N)c([N+](=O)[O-])c(NCc3ccco3)n2)c1`, in test [12], the CC50 was 15.8 µM (active). For the same compound, the IC50 in test [7] is on record as 7.89 µM (not active).

Turning to `Cc1nc(N)nc(S)c1CCCNc1ccccc1`, the IC50 in [1] and in test [2] was > 66 µM (inactive) throughout. The AC50 on Cytochrome P450 3A4 is 6.31 µM (inconclusive).

With `O=C(C1CCCN(S(=O)(=O)c2ccc(Cl)cc2)C1)N(Cc1cccs1)C1CC1` (stereo not drawn), the values for the EC50 in test [3] and in [13] were 6.78 µM (active) and > 195 µM (not active), respectively.

On to `Cc1ccccc1Cn1c(=O)n(CC2CCC(C(=O)NCCc3ccccc3)CC2)c(=O)c2ccccc21` (stereo not drawn), for which the EC50 in [14] was 17 µM (active); in [15], 13.3 µM (active). Besides, in [7], the IC50 is listed as 20.7 µM (not active).

For the compound `CCN(CC)S(=O)(=O)c1ccc(N(C)Cc2ccc(C(F)(F)F)cc2)nc1`, the EC50 in test [3] is 10.4 µM (active). Further, the AC50 in [16] is 41.1 µM (active); in [4], 25.9 µM (active); in test [5], 5.85 µM (active).

As for `N=c1c(C(=O)NCc2ccco2)cc2c(=O)n3ccccc3nc2n1CC1CCCO1` (stereo not drawn), the results for the IC50 in [1] and in [2] were 39.5 µM (inactive) and > 66 µM (inactive), respectively.

Consider `COc1ccc(C(=O)OCC(=O)NCc2ccco2)cc1OC`, for which, in test [6], the IC50 is 9.73 µM (active).

For the compound `CCCc1nc2ccccc2n1CCOc1ccccc1`, the EC50 in [3] is 8.61 µM (active).

`O=C(c1cc2sccc2n1Cc1ccccc1)N1CCCc2ccccc21`: the EC50 in test [3] is 5.98 µM (active).

`N#CCCN(C(=O)CSc1ccc2c(c1)OCCO2)c1ccccc1`: the IC50 in test [1] and in test [2] was > 66 µM (inactive) each time.

Turning to `c1ccc(-c2noc(CSc3nnc(Cc4cccs4)n3-c3ccccc3)n2)cc1`, the EC50 in test [3] is 4.16 µM (active).

As to `Cc1cc(=O)oc2cc(NC(=O)c3ccc(OC(F)F)cc3)ccc12`, the IC50 in test [6] was 10.2 µM (active).

The record behind these values is ChEMBL document CHEMBL1201862, “PubChem BioAssay data set” (2004).
